In paper PMC8122671, “New Succinimides with Potent Anticancer Activity: Synthesis, Activation of Stress Signaling Pathways and Characterization of Apoptosis in Leukemia and Cervical Cancer Cells” (International Journal of Molecular Sciences, 2021):
Where two headings read alike, the source gives them in different places.

Tests used:
[1] = test system: HeLa (human cervix carcinoma) cells; experiment: MTT cytotoxicity assay, HeLa; format: cell-based; conditions: read-out: IC50 HeLa
Description: (§1) The cytotoxicity of new derivatives of dicarboximides was tested in HeLa (cervix carcinoma cell line), K562 (myelogenous leukemia cell line), MOLT-4 (Human T-Lymphoid Cell Line), and HUVEC (normal endothelial) cells. First, the viability of cells was determined after 48 h incubation with the screened compounds used at the concentration of 100 μM (data not shown). […] Cells exposed to 1% DMSO (as vehicle) served as the control with 100% survival.
(§2) Human umbilical vein endothelial cells (Life Technologies, Carlsbad, CA, USA) were cultured (according to the manufacturer’s instructions) in Medium 200 containing low serum growth supplement; 1 × 10^4 cells were seeded on each well on a 96-well plate (Nunc, Roskilde, Denmark). The HeLa (human cervix carcinoma), K562, and MOLT-4 (leukemia) cells were cultured in RPMI 1640 medium supplemented with antibiotics and 10% fetal calf serum in a 5% CO2–95% air atmosphere; 7 × 10^3 cells were seeded on each well on a 96-well plate (Nunc). Twenty-four hours later, cells were exposed to the test compounds for additional 48 hours. Stock solutions of test compounds were freshly prepared in DMSO. The final concentrations of the compounds tested in the cell cultures were 2 × 10^−1, 1 × 10^−1, 5 × 10^−2, 1 × 10^−2, 1 × 10^−3, and 1 × 10^−4 mM. The concentration of DMSO in the cell culture medium was 1%. The values of IC50 (the concentration of test compound required to reduce the cell survival fraction to 50% of the control) were calculated from dose–response curves and used as a measure of cellular sensitivity to a given treatment. The cytotoxicity of all compounds was determined by the MTT [3-(4,5-dimethylthiazol-2-yl)-2,5-diphenyltetrazolium bromide; Sigma, St. Louis, MO, USA] assay. Briefly, after 24 or 48 h of incubation with drugs, the cells were treated with the MTT reagent, and incubation was continued for 2 h. MTT-formazan crystals were dissolved in 20% SDS and 50% DMF at pH 4.7, and absorbance was read at 570 and 650 nm on a microplate reader FLUOstar Omega (BMG Labtech, Offenburg, Germany). As a control (100% viability), we used cells grown in the presence of the vehicle (1% DMSO) only.

[2] = test system: MOLT-4 (Human T-Lymphoid Cell Line); experiment: MTT cytotoxicity assay, MOLT-4; format: cell-based; conditions: read-out: IC50 MOLT-4
Description: as §1, §2

[3] = Lipophilicity (logkw) by reversed-phase chromatography (RP-HPLC); format: physicochemical; conditions: for logkw (Experimental): extrapolated to pure water; for logkw (Table S2): intercept of logk vs methanol fraction, n = 4
Excerpt: The main goal of the synthetic part was the synthesis of new derivatives of dicarboximides with decreased lipophilicity in comparison to the lead compounds, i.e., Ia–Ie and II. To reduce the lipophilicity of the new dicarboximides, a hydroxyalkyl chain connected with an aliphatic amine was introduced to the imides (Scheme 1). At the same time, the imide scaffold in derivatives from group 2 and 3 was the same as in lead compounds Ia–Ie and II, respectively (Figure 1). The structure of the imide was changed in derivatives 1b–1g. The lipophilicity of new derivatives was calculated using the Osiris Property Explorer program. For some compounds, lipophilicity was determined experimentally by a reversed-phase chromatography (detailed description is given in Materials and Methods and in the Supplementary Data, Table S2). Table 1 summarizes the calculated (clogP) and experimental (logkw) parameters of the lipophilicity of new derivatives.
The reversed-phase high-performance liquid chromatography (RP-HPLC) analysis was performed on a Merck–Hitachi LaChrom Elite System (Merck, Darmstadt, Germany) with diode array detector L-2455, thermostat L-2300, pump L-2130, and autosampler L-2200 and with the Waters XTerra MS RP-18 (3.5 μm, 150 × 4.6 mm) chromatographic column (Waters, Milford, MA, USA) as the stationary phase. The mobile phase consisted of methanol, water, and 0.1% (v/v) formic acid and was degassed by the use of the built-in membrane degasser. The methanol gradient grade for HPLC was purchased from Merck (Merck, Darmstadt, Germany) and formic acid from Polish Reagents (Polish Reagents, Gliwice, Poland); double-distilled water was used. Then, 5 μL of methanolic solutions (0.1%; m/v) of selected samples were applied to the chromatographic column by the use of an autosampler Hitachi L-2200 (LaChrom Elite, Hitachi-Merck, Darmstadt, Germany). The analysis was performed with the flow rate of 0.7 mL min^−1 in isocratic mode using various concentrations of organic modifier (methanol) in binary polar mobile phases; percentages of methanol in water were 45–70% (%, v/v) and changed by 5% per step. Chromatograms were detected at 254 nm and the temperature of the column was 25 °C. All experiments were repeated in triplicate, and the final results were taken to be the arithmetic means. Dead time was measured by the use of uracil (Calbiochem. Merck, Darmstadt, Germany). Statistical and regression analyses were performed using Statistica (ver. 13.3 for Windows). The chromatographic lipophilicity parameters ( logkW ) for selected samples were obtained by the extrapolation of the retention parameter logk to pure water, according to Equation (1):(1) logk=logkw−S·ϕ; where logkW is the value of the retention factor of a substance in pure water, S is the slope of the regression curve, and ϕ is the concentration of the organic modifier. The values of logk were calculated based on the raw HPLC data using the formula (2):(2) logk=logtR−t0/t0; where tR is the retention time and t0 is the dead retention time (determined for uracil).
The chromatographic lipophilicity parameters (logkௐ ) for selected samples were ob‐ tained by the extrapolation of the retention parame te r logk to pure water, according to […]
where logkௐ is the value of the retention factor of a substance in pure water, S is the slope of the regression curve, and φ is the concentration of the organic modifier. The values of logk were ca lcula ted based on the raw HPLC data using the formula: […]
logk ൌ log ሺ௧ೃ ି ௧బ௧బ ሻ (2) where tோ is the retention time and t଴ is the dead retention time (determined for ura‐ cil). The goodness of fit of the equation (1) to the experimental data was classified accord‐ ing to Jaffe (Jaffe, H. H. A Reexamination of the Hammet Equation. Chem. Rev. 1953, 53, In our RP‐HPLC experiments, the goodness of fit of the equation to the experi‐ mental data are excellent in most ca ses (r > 0.99). The F statistic val ues are, in all cases, […]

[4] = test system: HUVEC (normal endothelial) cells; experiment: MTT cytotoxicity assay, HUVEC; format: cell-based; conditions: Homo sapiens, read-out: IC50 HUVEC
Description: as §1, §2

[5] = test system: K562 (myelogenous leukemia cell line); experiment: MTT cytotoxicity assay, K562; format: cell-based, human; conditions: Homo sapiens, K562, 48 h, read-out: IC50 K562
Description: as §1, §2

[6] = 48 h incubation, average (SD) of three experiments
[7] = MOLT-4, 48 h incubation, average (SD) of three experiments

SMILES | IC50 [1, 6] | IC50 [2, 7] | logkw (Experimental) [3] | logkw (Table S2) [3] | IC50 [4, 6] | IC50 [5, 6] | IC50 ([1]; 48 h) | IC50 ([2]; MOLT-4, 48 h) | IC50 ([4]; 48 h) | IC50 [5]
CCNCC(O)CN1C(=O)C2C(C1=O)C1(C)C(=O)C2(C)C(c2ccccc2)=C1c1ccccc1 (stereo not drawn) [1b, 4-[3-(ethylamino)-2-hydroxypropyl]-1,7-dimethyl-8,9-diphenyl-4-azatricyclo [5.2.1.0^2,6]dec-8-ene-3,5,10-trione] | 30 µM | 7 µM | 4.78 | 4.7844 | 20 µM | 32 µM | – | – | – | –
CC(C)(C)NCC(O)CN1C(=O)C2C(C1=O)C1(C)C(=O)C2(C)C(c2ccccc2)=C1c1ccccc1 (stereo not drawn) [1c, 4-[3-(tert-butylamino)-2-hydroxypropyl]-1,7-dimethyl-8,9-diphenyl-4-azatricyclo [5.2.1.0^2,6]dec-8-ene-3,5,10-trione] | 26 µM | 28 µM | 4.91 | 4.9077 | 23 µM | 28 µM | – | – | – | –
CCCCN(CCCC)CC(O)CN1C(=O)C2C(C1=O)C1(C)C(=O)C2(C)C(c2ccccc2)=C1c1ccccc1 (stereo not drawn) [1e, 4-[3-(dibutylamino)-2-hydroxypropyl]-1,7-dimethyl-8,9-diphenyl-4-azatricyclo [5.2.1.0^2,6]dec-8-ene-3,5,10-trione] | 3.2 µM | 8 µM | – | – | 30 µM | 5.8 µM | – | – | – | –
CC12C(=O)C(C)(C(c3ccccc3)=C1c1ccccc1)C1C(=O)N(CC(O)CN3CCCCC3)C(=O)C12 (stereo not drawn) [1f, 4-[2-hydroxy-3-(piperidin-1-yl)propyl]-1,7-dimethyl-8,9-diphenyl-4-azatricyclo[5.2.1.0^2,6]dec-8-ene-3,5,10-trione] | 55 µM | 40 µM | – | – | 21 µM | 18 µM | – | – | – | –
CC12C(=O)C(C)(C(c3ccccc3)=C1c1ccccc1)C1C(=O)N(CC(O)CN3CCOCC3)C(=O)C12 (stereo not drawn) [1g, 4-[-2-hydroxy-3-(morpholin-4-yl)propyl]-1,7-dimethyl-8,9-diphenyl-4-azatricyclo [5.2.1.0^2,6]dec-8-ene-3,5,10-trione] | > 100 µM | > 100 µM | 4.83 | 4.8345 | – | > 100 µM | – | – | – | –
CC12C(=O)C(C)(C(c3ccccc3)=C1c1ccccc1)C1C(=O)N(CCN3CCCCC3)C(=O)C12 (stereo not drawn) [1i, 4-[2-(piperidin-1-yl)ethy]-1,7-dimethyl-8,9-diphenyl-4-azatricyclo[5.2.1.0^2,6]dec-8-ene-3,5,10-trione] | 52 µM | 15 µM | – | – | 23 µM | 30 µM | – | – | – | –
CC12C(=O)C(C)(C(c3ccccc3)=C1c1ccccc1)C1C(=O)N(CCN3CCOCC3)C(=O)C12 (stereo not drawn) [1j, 4-[2-(morpholin-4-yl)ethy]-1,7-dimethyl-8,9-diphenyl-4-azatricyclo[5.2.1.0^2,6]dec-8-ene-3,5,10-trione] | > 100 µM | > 100 µM | – | – | – | > 100 µM | – | – | – | –
CCCCN(CCCC)CC(O)CN1C(=O)C2C(C1=O)C1(CC)C(=O)C2(CC)C(c2ccccc2)=C1c1ccccc1 (stereo not drawn) [2e, 4-[3-(dibutylamino)-2-hydroxypropyl]-1,7-diethyl-8,9-diphenyl-4-azatricyclo[5.2.1.0^2,6]dec-8-ene-3,5,10-trione] | 19 µM | 3.1 µM | – | – | 1.2 µM | 4.1 µM | – | – | – | –
CCNCC(O)CN1C(=O)C2C(C1=O)C1(c3ccccc3)CC2(c2ccccc2)C(c2ccccc2)=C1c1ccccc1 (stereo not drawn) [3b, 4-[3-(ethylamino)-2-hydroxypropyl]-1,7,8,9-tetraphenyl-4-azatricyclo[5.2.1.0^2,6]dec-8-ene-3,5-dione] | > 100 µM | > 100 µM | 6.31 | 6.3071 | – | > 100 µM | – | – | – | –
CCCCN(CCCC)CC(O)CN1C(=O)C2C(C1=O)C1(c3ccccc3)CC2(c2ccccc2)C(c2ccccc2)=C1c1ccccc1 (stereo not drawn) [3e, 4-[3-(dibutylamino)-2-hydroxypropyl]-1,7,8,9-tetraphenyl-4-azatricyclo[5.2.1.0^2,6]dec-8-ene-3,5-dione] | 40 µM | 5.4 µM | – | – | 7 µM | 6 µM | – | – | – | –
CN(C)CCN1C(=O)C2C(C1=O)C1(c3ccccc3)CC2(c2ccccc2)C(c2ccccc2)=C1c1ccccc1 (stereo not drawn) [II] | 20 µM | 18 µM | – | – | 4 µM | 16 µM | – | – | – | –
CCC12C(=O)C(CC)(C(c3ccccc3)=C1c1ccccc1)C1C(=O)N(CCN(C)C)C(=O)C12 (stereo not drawn) [Ia] | – | – | 4.94 | 4.9430 | – | – | – | – | – | –
CCN(CC)CCN1C(=O)C2C(C1=O)C1(CC)C(=O)C2(CC)C(c2ccccc2)=C1c1ccccc1 (stereo not drawn) [Ib] | – | – | 5.09 | 5.0889 | – | – | – | – | – | –
CCC12C(=O)C(CC)(C(c3ccccc3)=C1c1ccccc1)C1C(=O)N(CCN3CCCCC3)C(=O)C12 (stereo not drawn) [Ic] | 18 µM | 15 µM | – | – | 15 µM | 20 µM | – | – | – | –
CCC12C(=O)C(CC)(C(c3ccccc3)=C1c1ccccc1)C1C(=O)N(CCCN(C)C)C(=O)C12 (stereo not drawn) [Id] | – | – | 5.05 | 5.0532 | – | – | – | – | – | –
CCC12C(=O)C(CC)(C(c3ccccc3)=C1c1ccccc1)C1C(=O)N(CC(O)CNC(C)C)C(=O)C12 (stereo not drawn) [Ie] | – | – | – | – | – | – | 10 µM | 15 µM | 3.5 µM | 8 µM
